Data as given in ChEMBL document CHEMBL1144589, “Pharmacophoric features of Pseudomonas aeruginosa deacetylase LpxC inhibitors: an electronic and structural analysis” (Bioorg Med Chem Lett, 2007).
The source made the active and inactive calls. The rule behind the calls is not given here.

Biological target: T1, UDP-3-O-acyl-N-acetylglucosamine deacetylase (Pseudomonas aeruginosa (strain ATCC 15692 / PAO1 / 1C / PRS 101 / LMG12228)) (UniProt P47205)
T1 sequence (whole entry): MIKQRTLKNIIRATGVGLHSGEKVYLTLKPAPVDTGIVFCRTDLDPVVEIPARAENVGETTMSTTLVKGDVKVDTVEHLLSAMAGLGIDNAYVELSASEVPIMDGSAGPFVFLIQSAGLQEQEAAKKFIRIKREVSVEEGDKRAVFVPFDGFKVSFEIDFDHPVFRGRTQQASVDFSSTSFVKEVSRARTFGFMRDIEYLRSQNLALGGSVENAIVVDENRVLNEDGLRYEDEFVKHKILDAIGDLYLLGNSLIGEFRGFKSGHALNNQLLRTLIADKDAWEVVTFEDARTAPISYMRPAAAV
Test: Inhibition at Pseudomonas aeruginosa deacetylase LpxC receptor

Activity: Active
SMILES: O=C(NO)C1COC(c2cccc(C(F)(F)F)c2)=N1 (stereo unspecified)
